Legend:
[1] = Induction of phospholidosis in human HepG2 cells incubated overnight by […] in presence of fluorescent labeled phospholipid probe NBD-PE; assay type: cell-based; conditions: read-out: A50
[2] = Stability in human plasma assessed as parent compound remaining at 24 hrs by LC-MS analysis; assay type: ADME, cell-free; conditions: read-out: Stability
[3] = molecular target: T1, Beta-3 adrenergic receptor (Homo sapiens, UniProt P13945); assay: Agonist activity at human beta3 adrenergic receptor expressed in CHO cells assessed as accumulation of cAMP after 30 mins by TR-FRET assay relative to (R)-(-)-isoproterenol; assay type: functional, cell-based
[4] = Distribution coefficient, logD of the compound at pH 7.4; assay type: physicochemical; conditions: octanol/water
[5] = Stability in rat plasma assessed as parent compound remaining at 24 hrs by LC-MS analysis; assay type: ADME, cell-free; conditions: read-out: Stability
[6] = molecular target: Beta-1 adrenergic receptor (Homo sapiens, UniProt P08588)
Description: Displacement of [125]I-cyanopindolol from recombinant human beta1 adrenergic receptor after 1 hr by scintillation counting method

[7] = molecular target: Sodium channel protein type 2 subunit alpha (Homo sapiens, UniProt Q99250); assay: Inhibition of human Nav1.2 channel expressed in Xenopus oocytes by two-intracellular microelectrode voltage clamp method; assay type: cell-based
[8] = molecular target: Sodium-dependent serotonin transporter (Homo sapiens, UniProt P31645); assay: Inhibition of human SERT expressed in HEK293 cells preincubated for 30 mins followed by fluorescent substrate addition measured after 30 mins by plate reader analysis; assay type: cell-based
[9] = molecular target: Beta-2 adrenergic receptor (Homo sapiens, UniProt P07550)
Description: Displacement of [125]I-cyanopindolol from human recombinant beta2 adrenergic receptor after 1 hr by scintillation counting method

[10] = molecular target: Voltage-gated inwardly rectifying potassium channel KCNH2 (Homo sapiens, UniProt Q12809); assay: Binding affinity to human ERG channel
[11] = molecular target: T1, Beta-3 adrenergic receptor; assay: Agonist activity at human beta3 adrenergic receptor expressed in CHO cells assessed as accumulation of cAMP after 30 mins by TR-FRET assay; assay type: functional, cell-based
[12] = molecular target: Voltage-dependent L-type calcium channel subunit alpha-1C (Homo sapiens, UniProt Q13936); assay: Displacement of [3H]-diltiazem from human Cav1.2 channel
[13] = Half life in rat at 1 mg/kg, iv or 2 mg/kg, po; assay type: ADME, organism-based; conditions: in vivo
[14] = molecular target: Cytochrome P450 2D6 (Homo sapiens, UniProt P10635); assay: Inhibition of CYP2D6 in human liver microsomes assessed as dextraomethorphan O-demethylation; assay type: ADME
[15] = molecular target: Cytochrome P450 2C9 (Homo sapiens, UniProt P11712); assay: Inhibition of CYP2C9 in human liver microsomes assessed as diclofenac alpha'-hydroxylation; assay type: ADME
[16] = Oral bioavailability in rat at 2 mg/kg; assay type: ADME, organism-based; conditions: in vivo
[17] = molecular target: Cytochrome P450 3A4 (Homo sapiens, UniProt P08684); assay: Inhibition of CYP3A4 in human liver microsomes assessed as testosterone 6beta-hydroxylation; assay type: ADME
[18] = Plasma clearance in rat at 1 mg/kg, iv or 2 mg/kg, po; assay type: ADME, organism-based
[19] = test system: Rattus norvegicus; assay: Dose normalized total AUC in rat at 2 mg/kg, po; assay type: ADME, organism-based; conditions: in vivo
[20] = Stability in dog plasma assessed as parent compound remaining at 24 hrs by LC-MS analysis; assay type: ADME, cell-free, Canis lupus familiaris; conditions: read-out: Stability
[21] = Stability in rhesus monkey plasma assessed as parent compound remaining at 24 hrs by LC-MS analysis; assay type: ADME, cell-free, Macaca mulatta; conditions: read-out: Stability
[22] = test system: Rattus norvegicus; assay: Increase in circulating glycerol level in iv infused Sprague-Dawley rat after 45 mins by liquid chromatography-tandem mass spectrometric analysis; assay type: functional
[23] = test system: Rattus norvegicus; assay: Increase in circulating free fatty acid level in iv infused Sprague-Dawley rat after 45 mins by liquid chromatography-tandem mass spectrometric analysis; assay type: functional

Sequence of Beta-1 adrenergic receptor (P08588 whole entry): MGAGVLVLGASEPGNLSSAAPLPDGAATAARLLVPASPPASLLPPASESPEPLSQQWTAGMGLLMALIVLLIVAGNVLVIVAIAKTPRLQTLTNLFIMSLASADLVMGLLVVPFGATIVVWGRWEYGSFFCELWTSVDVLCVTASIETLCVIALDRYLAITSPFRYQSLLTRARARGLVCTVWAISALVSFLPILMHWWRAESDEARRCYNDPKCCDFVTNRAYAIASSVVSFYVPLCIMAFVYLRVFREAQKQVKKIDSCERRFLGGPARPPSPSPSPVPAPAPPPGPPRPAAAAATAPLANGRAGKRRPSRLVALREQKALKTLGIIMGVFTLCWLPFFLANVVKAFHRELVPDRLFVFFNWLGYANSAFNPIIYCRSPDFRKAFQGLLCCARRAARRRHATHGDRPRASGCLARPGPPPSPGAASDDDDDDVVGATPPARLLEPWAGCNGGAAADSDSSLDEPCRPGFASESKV
Sequence of Voltage-gated inwardly rectifying potassium channel KCNH2 (Q12809 whole entry): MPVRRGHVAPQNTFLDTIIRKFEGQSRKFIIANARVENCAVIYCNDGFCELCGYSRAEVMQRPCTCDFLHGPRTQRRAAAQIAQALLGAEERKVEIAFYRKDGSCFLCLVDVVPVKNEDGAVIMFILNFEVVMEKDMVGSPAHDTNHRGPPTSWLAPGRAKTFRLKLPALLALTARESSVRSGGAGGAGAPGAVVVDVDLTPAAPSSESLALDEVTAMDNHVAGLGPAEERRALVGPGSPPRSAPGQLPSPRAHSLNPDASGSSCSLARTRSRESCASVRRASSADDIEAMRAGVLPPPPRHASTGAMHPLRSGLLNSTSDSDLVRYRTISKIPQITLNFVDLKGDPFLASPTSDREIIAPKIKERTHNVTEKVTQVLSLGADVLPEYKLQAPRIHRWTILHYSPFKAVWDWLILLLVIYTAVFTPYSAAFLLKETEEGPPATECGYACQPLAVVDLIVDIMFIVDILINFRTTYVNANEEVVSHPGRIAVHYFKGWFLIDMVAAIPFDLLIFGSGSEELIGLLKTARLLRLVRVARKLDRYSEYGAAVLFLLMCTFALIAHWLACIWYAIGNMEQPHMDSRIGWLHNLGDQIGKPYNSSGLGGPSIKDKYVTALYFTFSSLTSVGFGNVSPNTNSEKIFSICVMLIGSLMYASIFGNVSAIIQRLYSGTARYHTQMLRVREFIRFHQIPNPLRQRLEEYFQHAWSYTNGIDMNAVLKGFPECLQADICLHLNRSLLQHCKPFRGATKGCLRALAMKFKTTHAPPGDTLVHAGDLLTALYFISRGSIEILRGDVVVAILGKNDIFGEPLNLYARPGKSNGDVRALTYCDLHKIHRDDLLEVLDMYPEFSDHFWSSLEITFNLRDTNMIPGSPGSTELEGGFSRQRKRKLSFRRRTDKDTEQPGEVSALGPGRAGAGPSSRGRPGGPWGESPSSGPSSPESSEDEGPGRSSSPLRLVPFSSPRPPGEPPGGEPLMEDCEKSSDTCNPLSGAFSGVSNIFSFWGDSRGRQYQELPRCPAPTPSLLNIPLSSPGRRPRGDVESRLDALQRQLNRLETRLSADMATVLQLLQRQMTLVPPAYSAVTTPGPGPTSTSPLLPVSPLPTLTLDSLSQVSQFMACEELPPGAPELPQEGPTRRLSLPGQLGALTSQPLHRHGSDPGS
Sequence of Sodium-dependent serotonin transporter (P31645 whole entry): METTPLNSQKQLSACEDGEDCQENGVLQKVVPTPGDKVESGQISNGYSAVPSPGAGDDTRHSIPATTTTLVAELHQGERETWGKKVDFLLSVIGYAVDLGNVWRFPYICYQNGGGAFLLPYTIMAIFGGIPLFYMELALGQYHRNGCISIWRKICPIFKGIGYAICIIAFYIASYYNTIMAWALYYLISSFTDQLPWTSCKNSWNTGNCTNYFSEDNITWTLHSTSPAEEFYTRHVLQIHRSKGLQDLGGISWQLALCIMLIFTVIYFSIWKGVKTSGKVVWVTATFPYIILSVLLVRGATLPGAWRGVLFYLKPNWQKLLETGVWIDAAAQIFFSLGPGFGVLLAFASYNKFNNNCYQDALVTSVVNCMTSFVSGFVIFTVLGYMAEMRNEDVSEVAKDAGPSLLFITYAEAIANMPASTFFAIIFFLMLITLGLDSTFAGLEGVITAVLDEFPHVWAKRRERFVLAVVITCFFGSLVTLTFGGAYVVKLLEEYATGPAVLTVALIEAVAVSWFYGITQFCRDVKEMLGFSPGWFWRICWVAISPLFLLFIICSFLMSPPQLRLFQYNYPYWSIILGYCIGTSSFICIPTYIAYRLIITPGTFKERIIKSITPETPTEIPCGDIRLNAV
Sequence of Voltage-dependent L-type calcium channel subunit alpha-1C (Q13936 whole entry): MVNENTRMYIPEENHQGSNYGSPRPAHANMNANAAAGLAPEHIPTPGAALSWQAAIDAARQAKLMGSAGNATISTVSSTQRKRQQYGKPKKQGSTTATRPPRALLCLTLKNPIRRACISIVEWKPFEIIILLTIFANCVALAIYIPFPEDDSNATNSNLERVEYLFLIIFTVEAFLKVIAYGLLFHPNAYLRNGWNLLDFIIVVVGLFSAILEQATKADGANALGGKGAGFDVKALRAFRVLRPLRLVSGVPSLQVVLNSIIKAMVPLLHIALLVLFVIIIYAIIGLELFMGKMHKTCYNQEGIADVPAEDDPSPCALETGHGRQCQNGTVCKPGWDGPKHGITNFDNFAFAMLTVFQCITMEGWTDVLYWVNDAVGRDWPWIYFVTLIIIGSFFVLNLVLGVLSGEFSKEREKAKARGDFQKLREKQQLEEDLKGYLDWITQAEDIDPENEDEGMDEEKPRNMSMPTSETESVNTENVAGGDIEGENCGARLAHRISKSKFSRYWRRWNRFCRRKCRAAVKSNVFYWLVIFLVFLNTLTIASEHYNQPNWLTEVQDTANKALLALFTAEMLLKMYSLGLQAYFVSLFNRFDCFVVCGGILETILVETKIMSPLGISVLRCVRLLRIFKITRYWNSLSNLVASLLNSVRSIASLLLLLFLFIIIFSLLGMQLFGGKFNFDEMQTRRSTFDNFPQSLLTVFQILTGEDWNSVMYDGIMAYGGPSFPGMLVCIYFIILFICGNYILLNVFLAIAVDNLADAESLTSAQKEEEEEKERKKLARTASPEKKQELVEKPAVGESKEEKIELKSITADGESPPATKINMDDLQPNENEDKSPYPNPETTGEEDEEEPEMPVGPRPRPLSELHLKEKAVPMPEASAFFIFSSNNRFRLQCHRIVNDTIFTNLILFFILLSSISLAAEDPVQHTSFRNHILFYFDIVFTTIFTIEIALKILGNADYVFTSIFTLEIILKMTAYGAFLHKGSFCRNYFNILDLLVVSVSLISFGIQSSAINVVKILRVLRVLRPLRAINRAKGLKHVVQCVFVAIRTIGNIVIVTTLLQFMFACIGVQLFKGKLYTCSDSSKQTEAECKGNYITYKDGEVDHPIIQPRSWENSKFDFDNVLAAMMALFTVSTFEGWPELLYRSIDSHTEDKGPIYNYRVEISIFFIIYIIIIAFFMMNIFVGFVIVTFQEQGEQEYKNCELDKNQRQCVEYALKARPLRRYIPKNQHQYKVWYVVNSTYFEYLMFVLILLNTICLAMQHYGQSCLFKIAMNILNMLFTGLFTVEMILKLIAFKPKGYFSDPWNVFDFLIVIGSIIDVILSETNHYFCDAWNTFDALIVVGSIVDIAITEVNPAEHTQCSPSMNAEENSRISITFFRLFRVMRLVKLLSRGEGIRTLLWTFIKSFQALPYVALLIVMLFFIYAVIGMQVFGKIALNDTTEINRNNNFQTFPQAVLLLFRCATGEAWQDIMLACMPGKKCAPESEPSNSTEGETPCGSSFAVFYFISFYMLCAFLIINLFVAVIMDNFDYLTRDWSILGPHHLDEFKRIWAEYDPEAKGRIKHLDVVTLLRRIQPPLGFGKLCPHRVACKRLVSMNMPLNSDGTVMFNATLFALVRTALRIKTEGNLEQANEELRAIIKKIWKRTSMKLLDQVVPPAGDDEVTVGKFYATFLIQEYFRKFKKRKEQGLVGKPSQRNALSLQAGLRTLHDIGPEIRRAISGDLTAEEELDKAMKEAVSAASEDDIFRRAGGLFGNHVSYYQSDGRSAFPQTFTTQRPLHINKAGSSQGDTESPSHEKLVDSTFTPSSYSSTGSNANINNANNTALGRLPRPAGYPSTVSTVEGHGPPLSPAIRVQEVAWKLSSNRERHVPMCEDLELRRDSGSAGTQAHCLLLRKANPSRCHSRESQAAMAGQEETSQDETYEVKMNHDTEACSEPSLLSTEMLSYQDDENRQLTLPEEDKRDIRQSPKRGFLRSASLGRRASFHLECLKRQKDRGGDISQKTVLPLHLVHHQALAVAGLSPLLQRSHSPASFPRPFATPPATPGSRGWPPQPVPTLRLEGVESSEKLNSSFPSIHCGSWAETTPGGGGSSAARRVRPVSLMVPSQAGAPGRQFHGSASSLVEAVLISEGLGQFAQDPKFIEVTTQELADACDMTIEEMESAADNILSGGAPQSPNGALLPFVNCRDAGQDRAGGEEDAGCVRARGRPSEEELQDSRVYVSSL
Sequence of Beta-2 adrenergic receptor (P07550 whole entry): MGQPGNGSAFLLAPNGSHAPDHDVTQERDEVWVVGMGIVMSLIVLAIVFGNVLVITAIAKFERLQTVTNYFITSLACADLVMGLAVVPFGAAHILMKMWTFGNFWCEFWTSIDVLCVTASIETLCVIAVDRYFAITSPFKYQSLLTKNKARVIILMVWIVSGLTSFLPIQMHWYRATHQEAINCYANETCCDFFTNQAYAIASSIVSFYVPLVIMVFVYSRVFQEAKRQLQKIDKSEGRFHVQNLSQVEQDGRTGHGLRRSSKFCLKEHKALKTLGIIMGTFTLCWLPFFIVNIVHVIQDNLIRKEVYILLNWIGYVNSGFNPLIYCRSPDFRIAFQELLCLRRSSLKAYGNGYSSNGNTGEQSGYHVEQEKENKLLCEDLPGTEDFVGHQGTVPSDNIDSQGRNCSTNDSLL

| Structure (SMILES) | AC50 [1] [µM] | max activation [3] [%] | logD [4] | IC50 [6] [µM] | IC50 [7] [µM] | IC50 [8] [µM] | IC50 [9] [µM] | IC50 [10] [µM] | EC50 [11] [µM] | IC50 [12] [µM] | also measured |
| --- | --- | --- | --- | --- | --- | --- | --- | --- | --- | --- | --- |
| O=C(Nc1ccc(C[C@@H]2CC[C@H]([C@H](O)c3cccnc3)N2)cc1)[C@@H]1CCc2scnc21 | 79 | 82 | 1.1 | – | – | – | – | – | – | – | remaining at 24 h [2]: 1%; remaining at 24 h [5]: 79% |
| O=C(Cn1ccccc1=O)Nc1ccc(C[C@@H]2CC[C@H]([C@H](O)c3ccccc3)N2)cc1 | > 100 | 97 | – | > 20 | > 30 | 1.1 | > 20 | > 30 | 0.0043 | > 30 | – |
| O=C(Cn1cccnc1=O)Nc1ccc(C[C@@H]2CC[C@H]([C@H](O)c3ccccc3)N2)cc1 | > 100 | 113 | 0.6 | > 20 | > 30 | 2.5 | > 20 | > 30 | 0.0022 | > 30 | half-life [13]: 3 h; IC50 [14]: 39 µM; IC50 [15]: > 100 µM; bioavailability [16]: 1%; IC50 [17]: > 100 µM; clearance [18]: 24 mL/min/kg; AUC/dose [19]: 24 nM·h/mg/kg |
| Nc1nc(CC(=O)Nc2ccc(C[C@@H]3CC[C@H]([C@H](O)c4ccccc4)N3)cc2)cs1 | – | 92 | 1.2 | > 20 | 30 | 1.4 | > 20 | 19 | 0.0009 | – | – |
| O=C(Cn1cnc2ccccc2c1=O)Nc1ccc(C[C@@H]2CC[C@H]([C@H](O)c3ccccc3)N2)cc1 | 8.6 | 108 | 2 | > 20 | > 30 | 0.2 | 2.2 | – | 0.0017 | 13 | IC50 [14]: 31 µM; IC50 [15]: > 100 µM; IC50 [17]: 96 µM |
| C[C@@H](C(=O)Nc1ccc(C[C@@H]2CC[C@H]([C@H](O)c3cccnc3)N2)cc1)n1ncccc1=O | > 100 | 87 | – | > 20 | > 30 | 0.8 | > 20 | > 30 | 0.0026 | > 30 | half-life [13]: 8 h; bioavailability [16]: < 1%; clearance [18]: 12 mL/min/kg; AUC/dose ([19]; BLD = below limit of detection): BLD |
| O=C(Nc1ccc(C[C@@H]2CC[C@H]([C@H](O)c3cccnc3)N2)cc1)[C@@H]1CCc2ccnn21 | 94 | 84 | 0.9 | – | – | – | – | – | – | – | remaining at 24 h [20]: 100%; remaining at 24 h [2]: 0%; remaining at 24 h [21]: 87%; remaining at 24 h [5]: 97% |
| Nc1nc(CC(=O)Nc2ccc(CCNC[C@H](O)c3ccccc3)cc2)cs1 [MIRABEGRON] | – | – | – | – | – | – | – | – | – | – | Activity [22]: Dose-dependent effect; minimal effective dose ([22]; 0.75 h, read-out: MED): 0.3 mg/kg; Activity [23]: Dose-dependent effect; minimal effective dose ([23]; 0.75 h, read-out: MED): 0.3 mg/kg |
| O=C(Cn1cnccc1=O)Nc1ccc(C[C@@H]2CC[C@H]([C@H](O)c3ccccc3)N2)cc1 | > 100 | 91 | – | > 20 | > 30 | 0.7 | > 20 | > 30 | 0.0039 | > 30 | – |

— ChEMBL document CHEMBL3763146 (J Med Chem, 2016)
